Laboratory results as given in article PMC6454892 (Nature chemistry, 2018).

Tested on: A. baumannii
Assay: MIC screening against A. baumannii
Assay type: cell-based
Details: tested separately, unconjugated

CN[C@H](CC(C)C)C(=O)N[C@H]1C(=O)N[C@@H](CC(N)=O)C(=O)N[C@H]2C(=O)N[C@H]3C(=O)N[C@H](C(=O)N[C@H](C(=O)O)c4cc(O)cc(O)c4-c4cc3ccc4O)[C@H](O)c3ccc(c(Cl)c3)Oc3cc2cc(c3O[C@@H]2O[C@H](CO)[C@@H](O)[C@H](O)[C@H]2O[C@H]2C[C@](C)(N)[C@H](O)[C@H](C)O2)Oc2ccc(cc2Cl)[C@H]1O [vancomycin]
efficacy against A. baumannii (in words): ineffective
